Key:
[1] = target: biotinylated human Gal-3 (hGal-3) (Homo sapiens, UniProt P17931); assay: Competitive binding assay: biotinylated hGal-3 binding to microplate-adsorbed asialofetuin (ASF), spectrophotometric; conditions: Gal-3 inhibition, Table 5; read-out: IC50
How it was run: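 Competitive binding of biotinylated hGal-3 to plate-adsorbed asialofetuin was measured with serially diluted compounds over 3 h at 4° C. Bound protein was detected with streptavidin-peroxidase and ABTS substrate by absorbance. IC50 values are means of several measurements.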

human Gal-1 (hGal-1) = human Gal-1 (hGal-1) (Homo sapiens, UniProt P09382); assay: Competitive binding assay: biotinylated hGal-1 binding to microplate-adsorbed asialofetuin (ASF), spectrophotometric; conditions: hGal-1 binding to asialofetuin; Table 15; R and S epimers of selected Examples also listed; read-out: IC50 (Galectin-1 inhibition)
human Gal-1 (hGal-1), sequence (P09382 whole entry): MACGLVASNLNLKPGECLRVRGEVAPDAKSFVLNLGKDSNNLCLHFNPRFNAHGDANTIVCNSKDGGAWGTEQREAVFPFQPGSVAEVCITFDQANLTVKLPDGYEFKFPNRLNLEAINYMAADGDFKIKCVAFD
How it was run: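 Biotinylated hGal-1 (300-1000 ng/mL) incubated with compound on asialofetuin-coated plates 3 hours at 4 °C, washed, then streptavidin-peroxidase (80 ng/mL) 1 hour at 4 °C. ABTS substrate read spectrophotometrically; IC50 reported as mean of several measurements.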

biotinylated human Gal-3 (hGal-3), sequence (P17931 whole entry): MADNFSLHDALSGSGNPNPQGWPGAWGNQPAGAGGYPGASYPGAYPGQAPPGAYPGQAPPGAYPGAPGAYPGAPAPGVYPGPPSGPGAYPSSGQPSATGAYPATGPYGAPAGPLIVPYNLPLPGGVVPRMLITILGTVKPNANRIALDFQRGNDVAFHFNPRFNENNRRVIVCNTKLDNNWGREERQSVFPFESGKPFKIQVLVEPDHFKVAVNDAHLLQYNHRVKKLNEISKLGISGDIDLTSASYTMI

SMILES | IC50 [1] | IC50 (human Gal-1 (hGal-1))
CN(CC(C)(C)F)C(=O)C(S[C@@H]1O[C@H](CO)[C@H](O)[C@H](n2cc(-c3cc(F)c(F)c(F)c3)nn2)[C@H]1O)C1(O)CCC1 (stereo partly drawn) [Example 2.34.222., 2-(((2S,3R,4S,5R,6R)-3,5-Dihydroxy-6-(hydroxymethyl)-4-(4-(3,4,5-trifluorophenyl)-1H-1,2,3-triazol-1-yl)tetrahydro-2H-pyran-2-yl)thio)-N-(2-fluoro-2-methylpropyl)-2-(1-hydroxycyclobutyl)-N-methylacetamide] | 410 nM | 220 nM
CN(CC(C)(C)F)C(=O)[C@H](S[C@@H]1O[C@H](CO)[C@H](O)[C@H](n2cc(-c3cc(F)c(F)c(F)c3)nn2)[C@H]1O)C1(O)CCC1 [Example 2.34.222R., (R)-2-(((2S,3R,4S,5R,6R)-3,5-Dihydroxy-6-(hydroxymethyl)-4-(4-(3,4,5-trifluorophenyl)-1H-1,2,3-triazol-1-yl)tetrahydro-2H-pyran-2-yl)thio)-N-(2-fluoro-2-methylpropyl)-2-(1-hydroxycyclobutyl)-N-methylacetamide] | 8610 nM | 46000 nM
CN(CC(C)(C)F)C(=O)[C@@H](S[C@@H]1O[C@H](CO)[C@H](O)[C@H](n2cc(-c3cc(F)c(F)c(F)c3)nn2)[C@H]1O)C1(O)CCC1 [Example 2.34.222S., (S)-2-(((2S,3R,4S,5R,6R)-3,5-Dihydroxy-6-(hydroxymethyl)-4-(4-(3,4,5-trifluorophenyl)-1H-1,2,3-triazol-1-yl)tetrahydro-2H-pyran-2-yl)thio)-N-(2-fluoro-2-methylpropyl)-2-(1-hydroxycyclobutyl)-N-methylacetamide] | 90 nM | 110 nM
CCN(C)C(=O)C(S[C@@H]1O[C@H](CO)[C@H](O)[C@H](n2cc(-c3cc(F)c(F)c(F)c3)nn2)[C@H]1O)C1(O)CCCC1 (stereo partly drawn) [Example 2.38.203., 2-(((2S,3R,4S,5R,6R)-3,5-Dihydroxy-6-(hydroxymethyl)-4-(4-(3,4,5-trifluorophenyl)-1H-1,2,3-triazol-1-yl)tetrahydro-2H-pyran-2-yl)thio)-N-ethyl-2-(1-hydroxycyclopentyl)-N-methylacetamide] | 430 nM | 1130 nM

Other lines, results leading:

IC50 [1] | IC50 (human Gal-1 (hGal-1)) | SMILES
310 nM | 160 nM | CN(CC(C)(C)C)C(=O)C(S[C@@H]1O[C@H](CO)[C@H](O)[C@H](n2cc(-c3cc(F)c(F)c(F)c3)nn2)[C@H]1O)C1(O)CCC1 (stereo partly drawn) [Example 2.34.228., 2-(((2S,3R,4S,5R,6R)-3,5-Dihydroxy-6-(hydroxymethyl)-4-(4-(3,4,5-trifluorophenyl)-1H-1,2,3-triazol-1-yl)tetrahydro-2H-pyran-2-yl)thio)-2-(1-hydroxycyclobutyl)-N-methyl-N-neopentylacetamide]
5900 nM | 22600 nM | CN(CC(C)(C)C)C(=O)[C@H](S[C@@H]1O[C@H](CO)[C@H](O)[C@H](n2cc(-c3cc(F)c(F)c(F)c3)nn2)[C@H]1O)C1(O)CCC1 [Example 2.34.228R., (R)-2-(((2S,3R,4S,5R,6R)-3,5-Dihydroxy-6-(hydroxymethyl)-4-(4-(3,4,5-trifluorophenyl)-1H-1,2,3-triazol-1-yl)tetrahydro-2H-pyran-2-yl)thio)-2-(1-hydroxycyclobutyl)-N-methyl-N-neopentylacetamide]
120 nM | 90 nM | CN(CC(C)(C)C)C(=O)[C@@H](S[C@@H]1O[C@H](CO)[C@H](O)[C@H](n2cc(-c3cc(F)c(F)c(F)c3)nn2)[C@H]1O)C1(O)CCC1 [Example 2.34.228S., (S)-2-(((2S,3R,4S,5R,6R)-3,5-Dihydroxy-6-(hydroxymethyl)-4-(4-(3,4,5-trifluorophenyl)-1H-1,2,3-triazol-1-yl)tetrahydro-2H-pyran-2-yl)thio)-2-(1-hydroxycyclobutyl)-N-methyl-N-neopentylacetamide]
